Source: patent US5326766A, “4-(2-(4-(2-pyridinyloxy)phenyl)ethoxy)quinazoline and analogues thereof” (priority 1992, dated 1994)

Tests used:
[1] = test system: tobacco budworm (Heliothis virescens); experiment: Activity against tobacco budworm; format: in vivo; details: Heliothis virescens, 144 h, 6 days, read-out: TBW activity (rated on live and dead larvae and size of live larvae)
Method: (§1) The compounds identified in Table I were tested for miticidal and insecticidal activity against eight species. The following abbreviations are used in the Table III:
TBW refers to tobacco budworm
(§2) In conducting evaluations of insecticidal activity, each test compound was formulated as a 400 ppm solution, and this solution was then diluted with water to give lesser concentrations. The 400 ppm solution was prepared by combining 19.2 mL of 0.05% solution of Tween 20 (polyoxyethylene (20) sorbitan monolaurate) in water with a solution of 8 mg of the compound in 0.8 mL of acetone/EtOH (9/1).
Activity against tobacco budworm (Heliothis virescens) was evaluated as follows. A general purpose lepidoptera artificial diet was diluted to half strength with a 5% non nutritive agar. 8 mL of this diet material was dispensed into each one ounce diet cup. One hour prior to treatment 18 to 20 eggs were dispensed onto the diet surface. The cups were then sprayed with formulated material through a flat-fan nozzle. The test was run using concentrations of 400 ppm and 50 ppm. Treated cups were air dried prior to sealing with plastic caps. The cups were held for 6 days at room temperature. Activity was then rated based on the total number of live and dead larvae, and on the size of live larvae.

[2] = test system: cotton aphid (Aphis gossypii); experiment: whole plant or invertebrate; details: 72 h; for mortality at 50 ppm: read-out: CA activity (percent based on aphids present in plants sprayed with solvent alone), 50 ppm, squash plants, three days after treatment; for mortality at 400 ppm: read-out: CA activity (percent based on aphids present in plants sprayed with solvent alone), 400 ppm, squash plants, three days after treatment
[3] = test system: Erysiphe graminis tritici (powdery mildew); experiment: Foliar spray fungicide test, Erysiphe graminis tritici (powdery mildew) on wheat; details: Blumeria graminis, in Triticum aestivum, foliar, read-out: ERYSGT disease control, host wheat, 400 ppm (+++: 100 ppm)
Method: (§3) The test compounds were formulated for application by dissolving 50 mg of the compound into 1.25 ml of solvent. The solvent was prepared by mixing 50 ml of "Tween 20" (polyoxyethylene (20) sorbitan monolaurate emulsifier) with 475 ml of acetone and 475 ml of ethanol. The solvent/compound solution was diluted to 125 ml with deionized water. The resulting formulation contains 400 ppm test chemical. Lower concentrations were obtained by serial dilution with the solvent-surfactant mixture.
The formulated test compounds were applied by foliar spray. The following plant pathogens and their corresponding plants were employed.
(§4) The formulated technical compounds were sprayed on all foliar surfaces of the host plants to past run-off. Single pots of each host plant were placed on raised, revolving pedestals in a fume hood. Test solutions were sprayed on all foliar surfaces. All treatments were allowed to dry and the plants were inoculated with the appropriate pathogens within 24 hours.
(§5) The effectiveness of test compounds in controlling disease was rated using the following scale.

[4] = test system: Pyricularia oryzae (rice blast); experiment: whole plant or invertebrate; format: in vivo; details: Pyricularia oryzae, foliar, read-out: PYRIOR disease control, host rice; foliar spray; 400 ppm (+++: 100 ppm)
[5] = test system: Puccinia recondita tritici (leaf rust); experiment: Foliar spray fungicide test, Puccinia recondita tritici (leaf rust) on wheat; details: Puccinia recondita, in Triticum aestivum, foliar, read-out: PUCCRT disease control, host wheat, 400 ppm (+++: 100 ppm)
[6] = test system: Southern corn rootworm (Diabrotica undecimpuctata howardi Barber); experiment: whole plant or invertebrate; format: in vivo; details: 400 ppm, soil concentration of 24 ppm, 3-4 days, read-out: SCRW mortality
Method: as §1
SCRW refers to southern corn rootworm
as §2
Activity on Southern corn rootworm (Diabrotica undecimpuctata howardi Barber) was evaluated by adding one mL of test solution containing a predetermined concentration of test compound to a cup containing a kernel of corn in 16 g of sterile soil. This produces a soil concentration of 24 ppm. After 1.5 to 2 hours of drying, five 4th instar corn rootworm larvae were added to the individual cups. Mortality was measured at 3-4 days by emptying the cup onto a pan and inspecting the soil for live rootworms.

[7] = test system: Leptosphaeria nodorum (glume blotch); experiment: Foliar spray fungicide test, Leptosphaeria nodorum (glume blotch) on wheat; details: Parastagonospora nodorum, in Triticum aestivum, foliar, read-out: LETPNO disease control, host wheat, 400 ppm (+++: 100 ppm)
Method: as §3
The formulated test compounds were applied by foliar spray.
as §4, §5

[8] = test system: Plasmopara viticola (downy mildew); experiment: Foliar spray fungicide test, Plasmopara viticola (downy mildew) on grape; details: for pest or weed control at 400 µg/mL: Plasmopara viticola, foliar, read-out: PLASVI disease control
[9] = test system: aster leafhopper (Macrosteles fascifrons); experiment: whole plant or invertebrate; format: in vivo; details: Macrosteles fascifrons, 24 h, read-out: ALH percent mortality
Method: as §1
ALH refers to aster leafhopper
as §2
Activity against aster leafhopper (Macrosteles fascifrons) was tested as follows. The test was run using concentrations of 400 ppm and 50 ppm. One ounce plastic cups containing a cotton wick was sprayed with 0.4 mL of formulated material using a flat-fan nozzle. The excess moisture was allowed to evaporate. Then five to ten carbon dioxide anesthetized adult leafhoppers were added to each cup. The cups were capped and held at room temperature for 24 hours. Percent mortality was then determined.

[10] = test system: German cockroach (Blattella germanicus); experiment: whole plant or invertebrate; format: in vivo; details: 240 h, ten days, read-out: GECR activity (rated on live and dead insects)
Method: as §1
GECR refers to German cockroach
as §2
Activity against German cockroach (Blattella germanicus) was evaluated as follows. 8 mL of alfalfa based green insect diet material was dispensed into a one ounce diet cup. The cups were then sprayed with formulated material through a flat-fan nozzle. The test was run using concentrations of 400 ppm and 50 ppm. Treated cups were air dried for 24 hours and infested with five late third or early fourth instar German cockroaches. The cups were capped and held for ten days in an environmental growth chamber at a temperature of […]. Activity was then rated based on the total number of live and dead insects.

[11] = test system: two spotted spider mite (Tetranychus urticae); experiment: whole plant or invertebrate; details: 72 h; for mortality at 50 ppm: read-out: TSSM activity (percent based on mites present in plants sprayed with solvent alone), 50 ppm, squash plants, three days after treatment; for mortality at 400 ppm: read-out: TSSM activity (percent based on mites present in plants sprayed with solvent alone), 400 ppm, squash plants, three days after treatment
[12] = test system: beet armyworm (Spodoptera exiqua); experiment: Activity against beet armyworm; format: in vivo; details: Spodoptera, 144 h, 6 days, read-out: BAW activity (rated on live and dead larvae and size of live larvae)
Method: as §1
BAW refers to beet armyworm
as §2
Activity against beet armyworm (Spodoptera exiqua) was evaluated as follows. The test is run using concentrations of 400 ppm and 50 ppm. A general purpose lepidoptera artificial diet was diluted to half strength with a 5% non nutritive agar. 8 mL of this diet material was dispensed into one ounce diet cups. One hour prior to treatment, 35 to 40 eggs were dispensed onto the diet surface. The cups were then sprayed with formulated material through a flat-fan nozzle. Treated cups were air dried prior to sealing with plastic caps. The cups were held for 6 days at room temperature. Activity was then rated based on the total number of live and dead larvae, and on the size of live larvae.

Structure (SMILES) | pest or weed control at 50 ppm [1] [%] | pest or weed control at 400 ppm [1] [%] | mortality at 50 ppm [2] [%] | mortality at 400 ppm [2] [%] | pest or weed control at 400 µg/mL [3] [%] | pest or weed control at 400 µg/mL [4] [%] | pest or weed control at 400 µg/mL [5] [%] | mortality at 24 ppm [6] [%] | pest or weed control at 400 µg/mL [7] [%] | pest or weed control at 400 µg/mL [8] [%] | mortality at 50 ppm [9] [%] | mortality at 400 ppm [9] [%] | mortality at 50 ppm [10] [%] | mortality at 400 ppm [10] [%] | mortality at 50 ppm [11] [%] | mortality at 400 ppm [11] [%] | pest or weed control at 50 ppm [12] [%] | pest or weed control at 400 ppm [12] [%] | PLASVI disease control ([8]; host grape, foliar spray, 400 ppm (+++: 100 ppm))
Fc1cccc2c(NCCc3ccc(Oc4ncc(C(F)(F)F)cc4Cl)cc3)ncnc12 [Compound 1] | 100 | 0 | 0 | 0 | 90 to 100 | 90 to 100 | 90 to 100 | 80 | 90 to 100 | 90 to 100 | 100 | 100 | 0 | 20 | 0 | 0 | 100 | 100 | 
Fc1cc(C(F)(F)F)cnc1Oc1ccc(CCOc2ncnc3c(F)cccc23)cc1 [Compound 5] |  | 100 |  | 100 | 90 to 100 | 90 to 100 | 90 to 100 | 100 | 0 to 19 | 90 to 100 |  | 100 |  | 100 |  | 100 |  | 100 | 
Fc1cc(C(F)(F)F)cnc1Oc1ccc(CCNc2ncnc3c(F)cccc23)cc1 [Compound 6] | 100 | 100 | 0 | 0 | 90 to 100 | 90 to 100 | 90 to 100 | 0 | 90 to 100 | 90 to 100 | 100 | 100 | 40 | 20 | 0 | 0 | 100 | 100 | 
Fc1cc(C(F)(F)F)cnc1Oc1ccc(CCOc2ncnc3cccc(F)c23)cc1 [Compound 7] | 100 | 100 | 100 | 100 | 0 to 19 | 0 to 19 | 0 to 19 | 0 | 0 to 19 | 0 to 19 | 100 | 80 | 0 | 0 | 100 | 100 | 100 | 100 | 
Fc1cccc2c(OCCc3ccc(Oc4cc(C(F)(F)F)ccn4)cc3)ncnc12 [Compound 12] | 70 | 100 | 100 | 100 | 90 to 100 | 90 to 100 | 90 to 100 | 0 | 20 to 89 | 90 to 100 | 80 | 100 | 0 | 60 | 90 | 100 | 100 | 100 | 
FC(F)(F)c1ccnc(Oc2ccc(CCOc3ncnc4ccccc34)cc2)c1 [Compound 13] |  | 100 |  | 100 | 90 to 100 | 20 to 89 | 90 to 100 |  | 90 to 100 | 90 to 100 |  | 100 |  |  |  | 100 |  | 100 | 
Fc1cccc2ncnc(OCCc3ccc(Oc4ccc(Cl)cn4)cc3)c12 [Compound 16] | 100 | 100 | 100 | 100 | 90 to 100 | 90 to 100 | 90 to 100 | 80 | 20 to 89 | 90 to 100 | 80 | 100 | 0 | 40 | 100 | 100 | 100 | 100 | 
Fc1cccc2c(OCCc3ccc(Oc4ncc(Cl)cc4Cl)cc3)ncnc12 [Compound 41] |  | 100 |  | 100 | 90 to 100 | 90 to 100 | 90 to 100 |  | 20 to 89 |  |  | 100 |  |  |  | 100 |  | 100 | ++ +
Fc1cccc2ncnc(OCCc3ccc(Oc4nc(Cl)c(Cl)cc4Cl)cc3)c12 [Compound 43] | 0 | 0 | 0 | 0 | 0 to 19 | 0 to 19 | 0 to 19 | 0 | 0 to 19 |  | 0 | 0 | 0 | 0 | 0 | 0 | 0 | 0 | 
